row,melting point [°C],Structure (SMILES)
1,-35,OCCC(F)(F)C(F)(F)C(F)(F)C(F)(F)C(F)(F)C(F)(F)F
2,70.5,CCCCCCCCCCCCCCCCCCOCC(O)CO (stereo unspecified)
3,152,O=C1CCCCCCCCCCCN1
4,45 to 47,O=C=Nc1cccc(-c2ncccn2)c1
5,270,Cc1nc2ccccc2[nH]c1=O
6,174 to 178,O=C(C=Cc1ccccc1)c1ccc(O)cc1
7,144,CC(C)NC(=S)NC(C)C
8,29 to 33,CCCCCCCCCCCCCCCCCCN=C=S
9,196,COC(=O)NC1C(O)OC(CO)C(O)C1O (stereo unspecified)
10,17.5,CCCCCCCCCCCC(=O)OCCOCCO
11,110,O=C(O)Cc1csc2ccccc12
12,68,O=[N+]([O-])c1ccc2c(c1)NCC2
13,21.6,CCc1cccc(C)c1N(COC(C)C)C(=O)CCl
14,231 to 233,CCN1C(=O)C(=Cc2coc3ccc(Cl)cc3c2=O)SC1=S
15,16,CCCCCCCCCCCCN(CCCCCCCCCCCC)CCCCCCCCCCCC
16,243 to 254,CSc1nc(N)nc(-c2cccnc2)n1
17,183,OC1C2COC(O2)C(O)C1O (stereo unspecified)
18,158 to 160,CCOC(=O)c1ccc(N2C(=O)CCC2=O)cc1
19,215,O=[N+]([O-])c1cc([N+](=O)[O-])c(/C=C/c2cccc3c2OCO3)cc1/C=C/c1cccc2c1OCO2
20,185,CCOC(=O)C1=C(C)NC(=O)NC1c1ccc(Cl)cc1 (stereo unspecified)
21,88,O=Cc1cccc2cc[nH]c12

row,melting point [°C],Structure (SMILES)
1,300,Nc1nc(S)nc(S)n1
2,18,O=C(O)CCS
3,255,N#CCCn1cnc2c(N)ncnc21
4,-46,CCOC(=O)CC(O)(CC(=O)OCC)C(=O)OCC
5,40 to 43,NNc1c(Cl)cc(Cl)cc1C(F)(F)F
6,123,O=S(=O)(c1ccccc1)c1cccs1
7,130,CCOC(=O)c1cc(C)n(Cn2nc(C(=O)OCC)cc2C)n1
8,65,O=C(O)COC(=O)c1cc(Oc2ccc(C(F)F)cc2Cl)ccc1[N+](=O)[O-]
9,112,NS(=O)(=O)c1ccc(SCCO)cc1
10,70,Clc1ccc(Br)c(Cl)n1
11,71,O=C(NC1CCN(Cc2ccccc2)C1)C(F)(F)F (stereo unspecified)
12,138 to 139,Nc1ccc(C=C/C(=N/O)c2ccccc2)cc1
13,85 to 89,CC(C)(C)NC[C@H](O)CO
14,126 to 132,Brc1c[nH]cn1
15,-8,CCCCCCC#CC(=O)O
16,215,CSc1nc(N)nc(-c2cnccn2)n1
17,136,Cc1ccc(N=C(CNc2ccc(C)cc2)Nc2ccc(C)cc2)cc1
18,295,O=C1NC(=NN=Cc2ccccc2)SC1=Cc1ccccc1
19,57,Oc1cc(Br)ccc1Cl
20,285,COc1cc2nc(N3CCN(C(=O)c4ccco4)CC3)nc(N)c2cc1OC
21,-50,C=C(C)CO

row,melting point [°C],Structure (SMILES)
1,137 to 139,O=C(Nc1ccccn1)c1ccccc1Cl
2,22 to 24,O=C(c1ccc(F)cc1)c1ccccc1F
3,183 to 187,O=c1cc(-c2ccccc2)oc2ccc(Cl)cc12
4,107,O=[N+]([O-])c1ccc(Cl)nc1
5,128,CC(C)NCC(O)COc1ccc(O)cc1 (stereo unspecified)
6,65 to 67,COc1cc(-c2ccccc2)c(C)cc1N
7,90,COc1c(Br)c(C)c(Br)c(Br)c1OC
8,111,COC(=O)C(C)(C)C(CC(=O)O)c1ccccc1 (stereo unspecified)
9,110 to 111,COC(=O)c1cc2cc(Br)ccc2s1
10,-50,Cc1ccccc1C(C)(C)C
11,114 to 116,Cc1noc(-c2ccc(CBr)cc2)n1
12,151,COc1cccc(CNC(=O)c2[nH]c3ccccc3c2CCO)c1
13,119,CCOc1ccc(C(=S)N2CCOCC2)cc1OC
14,78 to 80,Cc1cc([N+](=O)[O-])cnc1Cl
15,75,CC(=O)CCc1oc2ccc(Cl)cc2c1-c1ccc(C)o1
16,149 to 152,C#CCON1C(=O)c2ccccc2C1=O
17,110,NS(=O)(=O)c1ccc(SCCCO)c(F)c1
18,-3,CCCCCCCCCCCS
19,25,CCCCCCCCCC(O)CC (stereo unspecified)
20,199 to 205,Cc1cc(NN)nc2c1c(C)nn2C
21,< 20,Brc1ccc(Oc2ccc(Br)c(Br)c2)c(Br)c1

row,melting point [°C],Structure (SMILES)
1,262,O=c1ccc2ccc(O)c(O)c2o1
2,206 to 208,Brc1nc(Br)c(Br)c(Br)c1Br
3,43.8,CCCCC(CC)(CO)CO
4,158,O=C(/C=C/c1ccccc1)Oc1ccc(/C=C/C(=O)c2ccccc2)cc1
5,119,COc1c(OC)c2occc2c2oc(=O)ccc12
6,253,N#C/C(=N\Nc1ccc(Cl)cc1)c1nc2ccccc2c(=O)[nH]1
7,118,Cc1ccc(C2(O)CCN(CCCC(=O)c3ccc(F)cc3)CC2)cc1
8,285,O=C(O)c1ccc(N2C(=O)C3C(C(=O)c4ccc(Cl)cc4)=NN(c4ccccc4)C3C2=O)cc1 (stereo unspecified)
9,39 to 42,NCc1ccc(-c2nccs2)cc1
10,163,O=C(CCCNC(=O)CCCCC(=O)NCCCC(=O)NO)NO
11,105,COC(=O)c1cc2ccccc2c(O)c1C(=O)OC
12,63,O=Cc1ccc(Cl)c([N+](=O)[O-])c1
13,90,CCCCCCCCC(O)C(O)CCCCCCCC(=O)O (stereo unspecified)
14,161,Cc1cccnc1NC(=O)C(F)(F)C(F)(F)C(F)(F)C(F)(F)C(F)(F)C(F)(F)C(F)(F)C(F)(F)F
15,254,Nc1ccc(S(=O)(=O)Nc2ncccn2)cc1
16,130,Oc1cccc(Cl)n1
17,147,NC(=O)Cc1cccs1
18,118,CC1(C(=O)O)CCC(CCc2ccccc2)C1(C)C (stereo unspecified)
19,151 to 153,NNC(=O)C12CC3CC(CC(C3)C1)C2

row,Structure (SMILES),melting point [°C]
1,N#CC(O)c1ccccc1 (stereo unspecified),-10
2,NCCc1c[nH]c2ccc(O)cc12,168
3,Clc1ccc2ccccc2c1,61
4,COC(=O)C1C(=O)C(C(=O)OC)C2c3ccccc3C1C(C(=O)OC)C(O)C2C(=O)OC (stereo unspecified),92.2
5,O=C(NC(=O)c1c(F)cccc1F)Nc1ccc(Oc2ccc(C(F)(F)F)cc2Cl)cc1F,167
6,CCNC(=O)NC(=O)C(C#N)=NOC,161
7,Brc1c2ccccc2c(Br)c2ccccc12,226
8,Cc1ccc(OC2CCC3C4CCC5CC(=O)CCC5(C)C4CCC23C)cc1 (stereo unspecified),148 to 153
9,FC1=C(F)C(F)(F)C1(F)F,-60
10,C1OC1C1CO1 (stereo unspecified),4
11,CCc1cccc(CC)c1N(COC)C(=O)CCl,41
12,ClCc1ccc(Cl)nc1,40
13,Cc1ccc(N=C2NCCN2)c(Cl)c1,149
14,N#CC(N)=C(N)C#N,178 to 179

# From a melting point compilation (Tetko et al.)
